Consider eight compounds from ChEMBL document CHEMBL1909046, “DrugMatrix in vitro pharmacology data”.

The target in assay [1] is 5-hydroxytryptamine receptor 6 (Homo sapiens, UniProt P50406). The assay is classed as cell membranes, HeLa, Membrane. Note: in other assays of this panel Not Active means under 50% inhibition at 10 µM.
A further assay concerns the target T1, Neutrophil elastase (Homo sapiens, UniProt P08246).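 Note: inhibition of neutrophil elastase enzyme activity, measured with a p-nitroanilide-linked peptide substrate; in other assays of this panel Not Active means under 50% inhibition at 10 µM.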
T1 sequence (P08246 whole entry): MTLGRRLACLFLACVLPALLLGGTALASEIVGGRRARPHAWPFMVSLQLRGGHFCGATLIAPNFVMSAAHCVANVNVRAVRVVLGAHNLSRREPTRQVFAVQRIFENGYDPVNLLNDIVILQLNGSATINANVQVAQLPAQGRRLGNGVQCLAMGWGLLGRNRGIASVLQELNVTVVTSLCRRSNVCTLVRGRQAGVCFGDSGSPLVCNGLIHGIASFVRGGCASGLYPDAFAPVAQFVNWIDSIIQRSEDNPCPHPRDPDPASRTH
The assay is classed as tissue-based.

The nature of assay [2]: DRUGMATRIX: Leukotriene, BLT (LTB4) radioligand binding (ligand: [3H]LTB4). The assay is classed as cell membranes, Membrane. The following applies: u-937; Not Active = under 50% inhibition at 10 µM.
The target of assay [3] is T2, Nitric oxide synthase, inducible (Mus musculus, UniProt P29477).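 Note: inhibition of iNOS enzyme activity measured with L-arginine as substrate; in other assays of this panel Not Active means under 50% inhibition at 10 µM.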
T2 sequence (P29477 whole entry): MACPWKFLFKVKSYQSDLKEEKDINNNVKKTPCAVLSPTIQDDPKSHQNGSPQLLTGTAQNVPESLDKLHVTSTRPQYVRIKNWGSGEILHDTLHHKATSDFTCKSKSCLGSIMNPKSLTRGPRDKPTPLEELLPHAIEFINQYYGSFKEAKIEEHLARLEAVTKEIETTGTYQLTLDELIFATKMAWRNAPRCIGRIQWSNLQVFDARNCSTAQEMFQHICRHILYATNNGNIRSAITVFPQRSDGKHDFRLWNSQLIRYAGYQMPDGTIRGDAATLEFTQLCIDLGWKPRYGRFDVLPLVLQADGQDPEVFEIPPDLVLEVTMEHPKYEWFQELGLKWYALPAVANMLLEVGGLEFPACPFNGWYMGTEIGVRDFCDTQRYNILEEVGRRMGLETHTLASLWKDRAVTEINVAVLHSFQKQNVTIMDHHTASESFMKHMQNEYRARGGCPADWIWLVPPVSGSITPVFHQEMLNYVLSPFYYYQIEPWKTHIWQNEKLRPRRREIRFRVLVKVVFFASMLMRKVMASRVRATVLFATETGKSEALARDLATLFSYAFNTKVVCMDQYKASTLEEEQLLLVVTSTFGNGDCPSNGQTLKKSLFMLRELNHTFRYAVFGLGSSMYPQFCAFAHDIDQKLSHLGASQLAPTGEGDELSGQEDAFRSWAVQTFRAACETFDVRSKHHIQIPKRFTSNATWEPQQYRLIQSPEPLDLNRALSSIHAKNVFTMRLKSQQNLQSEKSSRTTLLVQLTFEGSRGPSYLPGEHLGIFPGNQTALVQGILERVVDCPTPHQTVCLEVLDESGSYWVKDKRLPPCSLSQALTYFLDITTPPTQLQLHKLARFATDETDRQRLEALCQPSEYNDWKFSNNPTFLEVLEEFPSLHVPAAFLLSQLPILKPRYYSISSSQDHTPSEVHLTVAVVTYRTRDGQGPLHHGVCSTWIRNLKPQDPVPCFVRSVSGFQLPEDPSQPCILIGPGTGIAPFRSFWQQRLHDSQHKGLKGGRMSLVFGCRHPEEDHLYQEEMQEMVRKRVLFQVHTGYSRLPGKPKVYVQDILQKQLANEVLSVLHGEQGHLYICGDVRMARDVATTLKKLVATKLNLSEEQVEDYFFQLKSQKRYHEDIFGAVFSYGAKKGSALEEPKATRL
On the set-up: species or system Escherichia coli.

Another assay deals with Glycine receptor (Rattus norvegicus, UniProt P22771+P24524+P07727+P20781). In kind it is cell membranes, Wistar, Spinal cord, Membrane.
The next assay concerns the target T3, Progesterone receptor (Bos taurus, UniProt Q690N0).
T3 sequence (Q690N0 whole entry): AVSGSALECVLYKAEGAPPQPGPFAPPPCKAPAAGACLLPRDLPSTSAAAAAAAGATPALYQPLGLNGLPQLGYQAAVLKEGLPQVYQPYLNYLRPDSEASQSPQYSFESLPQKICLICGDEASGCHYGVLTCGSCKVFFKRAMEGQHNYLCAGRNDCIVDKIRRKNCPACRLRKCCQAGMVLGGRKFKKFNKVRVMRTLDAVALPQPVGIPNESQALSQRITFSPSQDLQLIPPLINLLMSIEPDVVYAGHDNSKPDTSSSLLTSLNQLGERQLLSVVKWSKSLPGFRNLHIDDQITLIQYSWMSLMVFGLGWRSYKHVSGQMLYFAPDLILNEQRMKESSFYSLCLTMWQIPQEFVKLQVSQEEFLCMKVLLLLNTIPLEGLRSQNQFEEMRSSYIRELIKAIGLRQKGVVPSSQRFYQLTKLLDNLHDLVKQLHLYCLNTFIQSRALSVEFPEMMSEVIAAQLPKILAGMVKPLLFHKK
Briefly: DRUGMATRIX: Progesterone radioligand binding (ligand: [3H] R-5020). In kind it is tissue-based, Uterus. To be noted: Not Active = under 50% inhibition at 10 µM.

Assay [4] in a line: DRUGMATRIX: Tumor Necrosis Factor (TNF), Non-Selective radioligand binding (ligand: [125I] TNF-alpha). The assay is classed as cell membranes, Membrane. The following applies: u-937; Not Active = under 50% inhibition at 10 µM.

5-hydroxytryptamine receptor 6, sequence (P50406 whole entry): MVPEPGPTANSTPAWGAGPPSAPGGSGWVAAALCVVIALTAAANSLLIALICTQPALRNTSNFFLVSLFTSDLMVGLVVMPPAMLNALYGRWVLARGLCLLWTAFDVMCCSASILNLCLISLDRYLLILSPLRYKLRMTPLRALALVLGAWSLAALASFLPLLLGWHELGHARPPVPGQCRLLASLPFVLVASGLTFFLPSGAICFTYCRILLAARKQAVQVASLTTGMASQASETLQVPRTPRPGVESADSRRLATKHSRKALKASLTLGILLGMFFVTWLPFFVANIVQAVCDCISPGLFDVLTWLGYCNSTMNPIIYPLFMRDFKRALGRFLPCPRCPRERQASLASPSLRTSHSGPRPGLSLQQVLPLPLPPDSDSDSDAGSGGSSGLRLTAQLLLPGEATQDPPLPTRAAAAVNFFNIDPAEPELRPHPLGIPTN

For `COc1cc([C@@H]2c3cc4c(cc3[C@H](O)[C@H]3COC(=O)[C@H]23)OCO4)cc(OC)c1OC` [PODOFILOX], the IC50 entry (in assay [1] (hela); against Neutrophil elastase; in assay [2]; in assay [3]; against Glycine receptor; on Progesterone receptor) was “Not Active” each time. Besides, the IC50 entry in assay [4] is recorded as “Not Active”. Also, the Ki result in assay [2] and in assay [4] was “Not Active” each time.
For the compound `COc1cc(NC(C)CCCN)c2ncccc2c1` (stereo not drawn) [PRIMAQUINE], the IC50 entry (in assay [1] (hela); against Neutrophil elastase; in assay [2]; in assay [3]; at Glycine receptor; on Progesterone receptor) was “Not Active” throughout. The IC50 result in assay [4] was “Not Active”. The Ki result in assay [2] and in assay [4] was “Not Active” each time.
Regarding `CC(CN1c2ccccc2Sc2ccccc21)N(C)C` (stereo not drawn) [PROMETHAZINE], the IC50 in assay [1] (read-out: IC50) is 2.43 µM; on Neutrophil elastase, “Not Active”; in assay [2], “Not Active”; in assay [3] it was “Not Active”; on Glycine receptor, “Not Active”; on Progesterone receptor, “Not Active”. Further, the IC50 result in assay [4] was “Not Active”. The Ki is 1.13 µM in assay [1] (read-out: Ki), “Not Active” in assay [2] and “Not Active” in assay [4].
With `COc1ccc(C[C@H](N)C(=O)N[C@H]2[C@@H](O)[C@H](n3cnc4c(N(C)C)ncnc43)O[C@@H]2CO)cc1` [PUROMYCIN], the half-maximal inhibitory concentration (IC50) result (in assay [1] (hela); at Neutrophil elastase; in assay [2]; in assay [3]; against Glycine receptor; at Progesterone receptor) was “Not Active” throughout. Also, in assay [4], the IC50 entry is on record as “Not Active”. Moreover, the Ki entry in assay [2] and in assay [4] was “Not Active” in each case.
Consider CARBOXYMETHYLCELLULOSE, for which the IC50 result (in assay [1] (hela); against Neutrophil elastase; in assay [2]; in assay [3]; against Glycine receptor; on Progesterone receptor) was “Not Active” in each case. The IC50 result in assay [4] is “Not Active”. For the same compound, the Ki result (in assay [1] (hela); at Neutrophil elastase; in assay [2]; in assay [3]; on Glycine receptor; on Progesterone receptor) was “Not Active” in each case. In addition, the Ki entry in assay [4] was “Not Active”.
Take CHROMIC CHLORIDE: the IC50 result (in assay [1] (hela); at Neutrophil elastase; in assay [2]; in assay [3]; at Glycine receptor; at Progesterone receptor) was “Not Active” throughout. For the same compound, the half-inhibitory concentration (IC50) entry in assay [4] was “Not Active”. In addition, the Ki entry (in assay [1] (hela); at Neutrophil elastase; in assay [2]; in assay [3]; at Glycine receptor; at Progesterone receptor) was “Not Active” each time. The Ki entry in assay [4] is “Not Active”.
As for COPPER(II) OXIDE, the IC50 entry (in assay [1] (hela); at Neutrophil elastase; in assay [2]; in assay [3]; against Glycine receptor; at Progesterone receptor) was “Not Active” each time. Moreover, the IC50 result in assay [4] is recorded as “Not Active”. Also, the Ki result (in assay [1] (hela); on Neutrophil elastase; in assay [2]; in assay [3]; at Glycine receptor; on Progesterone receptor) was “Not Active” throughout. Moreover, the Ki entry in assay [4] was “Not Active”.
Consider POVIDONE, for which the IC50 entry (in assay [1] (hela); against Neutrophil elastase; in assay [2]; in assay [3]; on Glycine receptor; on Progesterone receptor) was “Not Active” in each case. In assay [4], the IC50 entry is given as “Not Active”. Besides, the Ki result (in assay [1] (hela); on Neutrophil elastase; in assay [2]; in assay [3]; on Glycine receptor; at Progesterone receptor) was “Not Active” in each case. Further, the Ki entry in assay [4] was “Not Active”.

As usually defined, the IC50 is the point on the concentration scale where inhibition reaches its midpoint. Usually Ki stands for a measure of affinity in units of concentration, obtained from inhibition or displacement.
